Data on 3 compounds can be found in paper PMC7128553 (Chemistry & Biology, 2004).

Broadly, the EC50 is the concentration that produces a half-maximal response.

“Also recorded” adds a separate entry of the source. Like-named read-outs stand apart in the source and are kept apart here.

The subject of one data set is Vero cells. The conditions noted are these: African green monkey.
For the next data set, the system named is SARS-CoV. Nature of the data set: microbe, parasite or virus in culture. The conditions noted are these: read-out: EC50, SARS-CoV plaque formation. The data set is classed as cell-based.
The next data set has as its system poliovirus (type 1). It is filed as cell-based.
Data set [1] deals with T1, human neutrophil elastase (HNE) (Homo sapiens, UniProt P08246).
T1 sequence (P08246 30-267): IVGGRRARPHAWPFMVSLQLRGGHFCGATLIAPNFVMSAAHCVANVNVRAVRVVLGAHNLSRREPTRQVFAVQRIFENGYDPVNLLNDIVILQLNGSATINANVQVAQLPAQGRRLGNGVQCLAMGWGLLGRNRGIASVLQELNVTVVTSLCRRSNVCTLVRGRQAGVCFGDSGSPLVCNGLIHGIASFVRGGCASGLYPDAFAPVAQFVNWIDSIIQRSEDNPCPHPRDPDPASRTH
The data set is classed as biochemical.

[2] abbreviates: Severe acute respiratory syndrome coronavirus, Vero.

For `O=C(Nc1ccc(Cl)c(-c2nc3ncccc3o2)c1)c1cccc(OCc2ccccc2)c1` [HE602, 3-Benzyloxy-N-(4-chloro-3-oxazolo[4,5-b]pyridine-2-yl-phenyl)benzamide], the “Cytotoxicity on Vero Cells (TC50)” value in the data set on Vero cells is above 50 µM. Also, the EC50 in the data set on SARS-CoV (setting [2]) is 6 µM; with SARS-CoV, below 10 µM.

For `OC(COc1cccc(OCC(O)CN2CCCCC2)c1)CN1CCCCC1` (stereo not drawn) [VE607, 1-[3-(2-Hydroxyl-3-piperidin-1-yl-propoxy)-phenoxy]-3-piperidin-1-ylpropan-2-ol], in the data set with poliovirus (type 1), the “Inhibition of poliovirus plaque formation” value is on record as “did not protect; also recorded: did not inhibit”. Moreover, the “Cytotoxicity on Vero Cells (TC50)” value with Vero cells is above 50 µM.

As for `CC1=C(C(=O)OCCc2ccccc2)C(c2ccccc2[N+](=O)[O-])C2=C(CCCC2=O)N1` (stereo not drawn) [MP576, 3-quinolinecarboxylic acid, 1,4,5,6,7,8-hexahydro-2-methyl-4-(2-nitrophenyl)-5-oxo-, 2-phenylethyl ester], in the data set on Vero cells, the “Cytotoxicity on Vero Cells (TC50)” value was above 50 µM. The EC50 is 7 µM with SARS-CoV (setting [2]) and below 10 µM in the data set on SARS-CoV. For the same compound, in data set [1], the “Inhibition of proteolytic activity of HNE” value was “failed to inhibit; also recorded: did not inhibit”.
